Source: patent US11931424B2, “Combination MCL-1 inhibitors with anti-body drug conjugates” (Gilead Sciences, Inc., priority 2021, dated 2024)

Tested on: panel of breast cancer cell lines
Test: Compound A with targeted agents and chemotherapies, 72-hour in vitro proliferation assays
Type: cell-based
Conditions: 72-hour proliferation
[1] = AU565 cell line, compound A × partner
[2] = BT-20 cell line, compound A × partner
[3] = BT-474 cell line, compound A × partner
[4] = BT-549 cell line, compound A × partner
[5] = CAL-51 cell line, compound A × partner
[6] = CAL-85-1 cell line, compound A × partner
[7] = CAL-120 cell line, compound A × partner
[8] = CAL-148 cell line, compound A × partner
[9] = CAMA-1 cell line, compound A × partner
[10] = DU-4475 cell line, compound A × partner
[11] = EVSA-T cell line, compound A × partner
[12] = HCC1143 cell line, compound A × partner
[13] = MCF7 cells, Compound A × partner agent
[14] = MDA-MB-175-VII cells, Compound A × partner agent
[15] = MDA-MB-231 cells, Compound A × partner agent
[16] = MDA-MB-361 cells, Compound A × partner agent
[17] = MDA-MB-436 cells, Compound A × partner agent
[18] = MDA-MB-453 cells, Compound A × partner agent
[19] = MDA-MB-468 cells, Compound A × partner agent
[20] = SK-BR-3 cells, Compound A × partner agent
[21] = SUM159PT cells, combination of compound A with the named agent
[22] = T47D cells, combination of compound A with the named agent
[23] = ZR-75-1 cells, combination of compound A with the named agent
[24] = ZR-75-30 cells, combination of compound A with the named agent

In the case of `N.N.[Cl][Pt][Cl]` [Cisplatin], the “Best CI” value [1] is reported as 0.79, the “Bliss Volume” value [1] is reported as 7.67 and the HSA volume [1] is reported as −6.49. For the same compound, the “Loewe Volume” value [1] was −5.19, the “Synergy Score” value [1] was 1.66 and the “Best CI” value [2] was 0.90. For the same compound, the “Bliss Volume” value [2] was 13.49, the HSA volume [2] was −0.68 and the “Loewe Volume” value [2] was −2.71. For the same compound, the “Synergy Score” value [2] was 2.27, the “Best CI” value [3] was 0.47 and the “Bliss Volume” value [3] was −2.63. The HSA volume [3] was −4.63, the “Loewe Volume” value [3] was −4.42 and the “Synergy Score” value [3] was 2.85. For the same compound, the “Best CI” value [4] was 1.01, the “Bliss Volume” value [4] was 7.35 and the HSA volume [4] was 2.86. For the same compound, the “Loewe Volume” value [4] was 4.16, the “Synergy Score” value [4] was 6.80 and the “Best CI” value [5] was 0.48. For the same compound, the “Bliss Volume” value [5] was 7.18, the HSA volume [5] was 4.36 and the “Loewe Volume” value [5] was 6.98. The “Synergy Score” value [5] was 9.30, the “Best CI” value [6] was 1.09 and the “Bliss Volume” value [6] was 6.84. For the same compound, the HSA volume [6] was 4.63, the “Loewe Volume” value [6] was 4.66 and the “Synergy Score” value [6] was 6.29. For the same compound, the “Best CI” value [7] was 0.19, the “Bliss Volume” value [7] was 1.51 and the HSA volume [7] was 0.51. The “Loewe Volume” value [7] was 1.48, the “Synergy Score” value [7] was 1.13 and the “Best CI” value [8] was 0.13. For the same compound, the “Bliss Volume” value [8] was 19.20, the HSA volume [8] was 19.03 and the “Loewe Volume” value [8] was 18.76. For the same compound, the “Synergy Score” value [8] was 37.06, the “Best CI” value [9] was 0.23 and the “Bliss Volume” value [9] was 16.63. The HSA volume [9] was 9.61, the “Loewe Volume” value [9] was 9.28 and the “Synergy Score” value [9] was 18.49. The “Best CI” value [10] was 0.29, the “Bliss Volume” value [10] was 14.10 and the HSA volume [10] was 5.48. The “Loewe Volume” value [10] was 5.54, the “Synergy Score” value [10] was 7.00 and the “Best CI” value [11] was 0.39. The “Bliss Volume” value [11] was 20.06, the HSA volume [11] was 3.60 and the “Loewe Volume” value [11] was 1.90. The “Synergy Score” value [11] was 2.53, the “Best CI” value (HCC38, compound A × partner) was 0.60 and the “Best CI Level” value (HCC38, compound A × partner) was 115. The “Bliss Volume” value (HCC38, compound A × partner) was 8.46, the HSA volume (HCC38, compound A × partner) was 3.08 and the “Loewe Volume” value (HCC38, compound A × partner) was 2.06. The “Synergy Score” value (HCC38, compound A × partner) was 6.47, the “Best CI” value (HCC70, compound A × partner) was 0.45 and the “Best CI Level” value (HCC70, compound A × partner) was 175. The “Bliss Volume” value (HCC70, compound A × partner) was 18.00, the HSA volume (HCC70, compound A × partner) was 4.42 and the “Loewe Volume” value (HCC70, compound A × partner) was 2.24. For the same compound, the “Synergy Score” value (HCC70, compound A × partner) was 9.16, the “Best CI” value [12] was 0.39 and the “Bliss Volume” value [12] was −0.20. For the same compound, the HSA volume [12] was −5.78, the “Loewe Volume” value [12] was −3.31 and the “Synergy Score” value [12] was 2.45. The “Best CI” value (HCC1569, compound A × partner) was 0.43, the “Best CI Level” value (HCC1569, compound A × partner) was 25 and the “Bliss Volume” value (HCC1569, compound A × partner) was 1.33. The HSA volume (HCC1569, compound A × partner) was −1.41, the “Loewe Volume” value (HCC1569, compound A × partner) was −2.74 and the “Synergy Score” value (HCC1569, compound A × partner) was 1.82. For the same compound, the “Best CI” value (HCC1806, compound A × partner) was 0.22, the “Best CI Level” value (HCC1806, compound A × partner) was 70 and the “Bliss Volume” value (HCC1806, compound A × partner) was 8.46. The HSA volume (HCC1806, compound A × partner) was 3.81, the “Loewe Volume” value (HCC1806, compound A × partner) was 5.93 and the “Synergy Score” value (HCC1806, compound A × partner) was 7.76. The “Best CI” value (HCC1937, compound A × partner) was 1.07, the “Best CI Level” value (HCC1937, compound A × partner) was 105 and the “Bliss Volume” value (HCC1937, compound A × partner) was 1.32. The HSA volume (HCC1937, compound A × partner) was −1.15, the “Loewe Volume” value (HCC1937, compound A × partner) was −0.59 and the “Synergy Score” value (HCC1937, compound A × partner) was 1.75. The “Best CI” value (HCC1954, compound A × partner) was 0.84, the “Best CI Level” value (HCC1954, compound A × partner) was 180 and the “Bliss Volume” value (HCC1954, compound A × partner) was 5.89. The HSA volume (HCC1954, compound A × partner) was −0.89, the “Loewe Volume” value (HCC1954, compound A × partner) was −1.88 and the “Synergy Score” value (HCC1954, compound A × partner) was 5.58. For the same compound, the “Best CI” value (HCC2218, compound A × partner) was 0.54, the “Best CI Level” value (HCC2218, compound A × partner) was 165 and the “Bliss Volume” value (HCC2218, compound A × partner) was 9.34. The HSA volume (HCC2218, compound A × partner) was 2.71, the “Loewe Volume” value (HCC2218, compound A × partner) was −0.66 and the “Synergy Score” value (HCC2218, compound A × partner) was 7.99. For the same compound, the “Best CI” value (HDQ-P1, compound A × partner) was 0.60, the “Best CI Level” value (HDQ-P1, compound A × partner) was 30 and the “Bliss Volume” value (HDQ-P1, compound A × partner) was 0.53. The HSA volume (HDQ-P1, compound A × partner) was −0.23, the “Loewe Volume” value (HDQ-P1, compound A × partner) was 0.64 and the “Synergy Score” value (HDQ-P1, compound A × partner) was 1.46. The “Best CI” value (HMC-1-8, compound A × partner) was 0.35, the “Best CI Level” value (HMC-1-8, compound A × partner) was 180 and the “Bliss Volume” value (HMC-1-8, compound A × partner) was 20.03. For the same compound, the HSA volume (HMC-1-8, compound A × partner) was 7.01, the “Loewe Volume” value (HMC-1-8, compound A × partner) was 6.38 and the “Synergy Score” value (HMC-1-8, compound A × partner) was 14.62. For the same compound, the “Best CI” value (JIMT-1, compound A × partner) was 0.61, the “Best CI Level” value (JIMT-1, compound A × partner) was 20 and the “Bliss Volume” value (JIMT-1, compound A × partner) was 0.69. The HSA volume (JIMT-1, compound A × partner) was −1.64, the “Loewe Volume” value (JIMT-1, compound A × partner) was −0.53 and the “Synergy Score” value (JIMT-1, compound A × partner) was 1.21. The “Best CI” value (KPL-1, compound A × partner) was 0.76, the “Best CI Level” value (KPL-1, compound A × partner) was 110 and the “Bliss Volume” value (KPL-1, compound A × partner) was −0.41. The HSA volume (KPL-1, compound A × partner) was 0.95, the “Loewe Volume” value (KPL-1, compound A × partner) was 0.45 and the “Synergy Score” value (KPL-1, compound A × partner) was 4.51. The “Best CI” value [13] was 0.45, the “Best CI Level” value [13] was 150 and the “Bliss Volume” value [13] was 11.15. For the same compound, the HSA volume [13] was 4.64, the “Loewe Volume” value [13] was 3.51 and the “Synergy Score” value [13] was 6.98. The “Best CI” value [14] was 0.49, the “Best CI Level” value [14] was 60 and the “Bliss Volume” value [14] was 9.70. For the same compound, the HSA volume [14] was −1.47, the “Loewe Volume” value [14] was 2.49 and the “Synergy Score” value [14] was 4.03. The “Best CI” value [15] was 0.34, the “Best CI Level” value [15] was 70 and the “Bliss Volume” value [15] was 5.98. For the same compound, the HSA volume [15] was 4.74, the “Loewe Volume” value [15] was 6.47 and the “Synergy Score” value [15] was 4.48. For the same compound, the “Best CI” value [16] was 0.81, the “Best CI Level” value [16] was 165 and the “Bliss Volume” value [16] was 3.24. For the same compound, the HSA volume [16] was −1.91, the “Loewe Volume” value [16] was −2.31 and the “Synergy Score” value [16] was 3.36. For the same compound, the “Best CI” value [17] was 1.18, the “Best CI Level” value [17] was 120 and the “Bliss Volume” value [17] was 2.08. For the same compound, the HSA volume [17] was 1.62, the “Loewe Volume” value [17] was 1.58 and the “Synergy Score” value [17] was 2.45. For the same compound, the “Best CI” value [18] was 0.34, the “Best CI Level” value [18] was 70 and the “Bliss Volume” value [18] was 13.82. For the same compound, the HSA volume [18] was 4.06, the “Loewe Volume” value [18] was 4.70 and the “Synergy Score” value [18] was 9.66. The “Best CI” value [19] was 0.53, the “Best CI Level” value [19] was 105 and the “Bliss Volume” value [19] was 27.91. The HSA volume [19] was 5.89, the “Loewe Volume” value [19] was 4.42 and the “Synergy Score” value [19] was 8.65. For the same compound, the “Best CI” value [20] was 0.14, the “Best CI Level” value [20] was 150 and the “Bliss Volume” value [20] was 19.53. The HSA volume [20] was 6.00, the “Loewe Volume” value [20] was 5.11 and the “Synergy Score” value [20] was 10.90. The “Best CI” value [21] was 0.79, the “Best CI Level” value [21] was 20 and the “Bliss Volume” value [21] was −1.91. The HSA volume [21] was −4.36, the “Loewe Volume” value [21] was −4.20 and the “Synergy Score” value [21] was 0.41. For the same compound, the “Best CI” value [22] was 0.79, the “Best CI Level” value [22] was 80 and the “Bliss Volume” value [22] was −0.02. For the same compound, the HSA volume [22] was 0.03, the “Loewe Volume” value [22] was 0.73 and the “Synergy Score” value [22] was 3.05. For the same compound, the “Best CI” value [23] was 0.88, the “Best CI Level” value [23] was 155 and the “Bliss Volume” value [23] was 9.45. For the same compound, the HSA volume [23] was 7.38, the “Loewe Volume” value [23] was 8.42 and the “Synergy Score” value [23] was 12.40. For the same compound, the “Best CI” value [24] was 0.24, the “Best CI Level” value [24] was 95 and the “Bliss Volume” value [24] was 14.77. For the same compound, the HSA volume [24] was 8.48, the “Loewe Volume” value [24] was 9.66 and the “Synergy Score” value [24] was 16.44.
